# Data reported in ChEMBL document CHEMBL5331121, “Preferred Conformation-Guided Discovery of Potent and Orally Active HIF Prolyl Hydroxylase 2 Inhibitors for the Treatment of Anemia” (J Med Chem, 2023).
# Calls of active or inactive are those of the source. No cut-off for these calls is given here.
# How the values were obtained:
# Mus musculus = assay: Upregulation of reticulocytes in C57BL/6J mouse at 10 mg/kg, po administered once daily for 3 days; assay type: functional, organism-based; details: time 3.0 day
# Hep 3B2 [1] = assay: Upregulation of EPO mRNA level in human Hep3B cells incubated for 12 hrs by RT-qPCR analysis; assay type: functional, cell-based; details: dose 5-20 µM
# [2] = Oral bioavailability in mouse at 10 mg/kg measured upto 24 hrs by LC-MS/MS analysis; assay type: ADME, organism-based; details: in vivo
# [3] = AUC(0 to infinity) in mouse at 1 mg/kg, iv measured upto 24 hrs by LC-MS/MS analysis; assay type: ADME, organism-based; set-up: time < 24 hrs, dose 1 mg/kg, route iv; details: in vivo
# [4] = Toxicity in ICR mouse assessed as change in heart to body weight ratio at 50 to 200 mg/kg, po administered every other day for 14 days; assay type: organism-based; details: in vivo, 336 h, dose 50-200 mg/kg, time 14 day
# [5] = Nephrotoxicity in ICR mouse at 50 to 200 mg/kg, po administered every other day for 14 days; assay type: toxicity, organism-based; details: in vivo, 336 h, dose 50-200 mg/kg, time 14 day
# Egl nine homolog 1 = Egl nine homolog 1 (Homo sapiens, UniProt Q9GZT9); assay: Binding affinity to […] PHD2 (181 to 426 residues) (unknown origin) by fluorescence polarization assay
# Chain of Egl nine homolog 1 (Q9GZT9 whole entry, the tested form may be a part): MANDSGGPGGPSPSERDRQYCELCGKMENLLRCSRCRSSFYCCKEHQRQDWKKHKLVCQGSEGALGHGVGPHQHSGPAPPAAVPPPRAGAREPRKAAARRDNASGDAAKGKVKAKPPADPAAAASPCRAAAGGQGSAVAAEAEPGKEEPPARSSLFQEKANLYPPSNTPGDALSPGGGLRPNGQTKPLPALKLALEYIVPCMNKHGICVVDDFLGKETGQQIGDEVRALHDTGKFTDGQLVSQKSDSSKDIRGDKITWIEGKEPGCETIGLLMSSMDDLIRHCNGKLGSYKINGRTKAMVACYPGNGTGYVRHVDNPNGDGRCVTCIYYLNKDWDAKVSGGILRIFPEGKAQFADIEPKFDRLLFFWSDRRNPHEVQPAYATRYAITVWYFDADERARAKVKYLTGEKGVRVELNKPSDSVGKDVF
# [6] = Clearance in Sprague-Dawley rat at 10 mg/kg, po measured upto 24 hrs by LC-MS/MS analysis; assay type: ADME, organism-based; details: in vivo
# [7] = Clearance in mouse at 10 mg/kg, po measured upto 24 hrs by LC-MS/MS analysis; assay type: ADME, organism-based; details: in vivo
# [8] = Upregulation of EPO mRNA level in human Hep3B cells assessed as fold increase at 20 uM incubated for 12 hrs by RT-qPCR analysis; assay type: functional, Hep 3B2
# [9] = Toxicity in ICR mouse assessed as behavioral abnormalities at 50 to 200 mg/kg, po administered every other day for 14 days; assay type: organism-based; details: in vivo, 336 h, dose 50-200 mg/kg, time 14 day
# [10] = Toxicity in ICR mouse assessed as effect on body weight at 50 to 200 mg/kg, po administered every other day for 14 days; assay type: organism-based; details: in vivo, 336 h, dose 50-200 mg/kg, time 14 day
# [11] = AUC(0 to t) in mouse at 10 mg/kg, po measured upto 24 hrs by LC-MS/MS analysis; assay type: ADME, organism-based; set-up: dose 10 mg/kg, time < 24 hrs, route po; details: in vivo
# [12] = Half life in mouse at 10 mg/kg, po measured upto 24 hrs by LC-MS/MS analysis; assay type: ADME, organism-based; details: in vivo
# [13] = Toxicity in ICR mouse assessed as lung damage at 50 to 200 mg/kg, po administered every other day for 14 days; assay type: organism-based; details: in vivo, 336 h, dose 50-200 mg/kg, time 14 day
# [14] = Mean residence time (0 to infinity) in Sprague-Dawley rat at 10 mg/kg, po measured upto 24 hrs by LC-MS/MS analysis; assay type: ADME, organism-based; details: in vivo
# [15] = AUC(0 to infinity) in Sprague-Dawley rat at 1 mg/kg, iv measured upto 24 hrs by LC-MS/MS analysis; assay type: ADME, organism-based; set-up: time < 24 hrs, dose 1 mg/kg, route iv; details: in vivo
# [16] = Toxicity in ICR mouse assessed as change in liver to body weight ratio at 50 to 200 mg/kg, po administered every other day for 14 days; assay type: organism-based; details: in vivo, 336 h, dose 50-200 mg/kg, time 14 day
# [17] = Half life in Sprague-Dawley rat at 1 mg/kg, iv measured upto 24 hrs by LC-MS/MS analysis; assay type: ADME, organism-based; details: in vivo
# [18] = Cmax in mouse at 10 mg/kg, po measured upto 24 hrs by LC-MS/MS analysis; assay type: ADME, organism-based; set-up: time < 24 hrs, dose 10 mg/kg, route po; details: in vivo
# [19] = Clearance in mouse at 1 mg/kg, iv measured upto 24 hrs by LC-MS/MS analysis; assay type: ADME, organism-based; details: in vivo
# [20] = Toxicity in ICR mouse assessed as change in kidney to body weight ratio at 50 to 200 mg/kg, po administered every other day for 14 days; assay type: organism-based; details: in vivo, 336 h, dose 50-200 mg/kg, time 14 day
# [21] = Hepatotoxicity in ICR mouse at 50 to 200 mg/kg, po administered every other day for 14 days; assay type: toxicity, organism-based; details: in vivo, 336 h, dose 50-200 mg/kg, time 14 day
# [22] = Tmax in mouse at 10 mg/kg, po measured upto 24 hrs by LC-MS/MS analysis; assay type: ADME, organism-based; details: in vivo
# [23] = Toxicity in ICR mouse assessed as spleen damage at 50 to 200 mg/kg, po administered every other day for 14 days; assay type: organism-based; details: in vivo, 336 h, dose 50-200 mg/kg, time 14 day
# [24] = Apparent volume of distribution in mouse at 1 mg/kg, iv measured upto 24 hrs by LC-MS/MS analysis; assay type: ADME, organism-based; details: in vivo, read-out: Vz
# [25] = target: Endothelial PAS domain-containing protein 1 (Homo sapiens) (UniProt Q99814); assay: Induction of HIF-2alpha stabilization in human Hep3B cells at 20 to 50 uM by Western blotting analysis; assay type: cell-based; details: dose 20-50 µM
# Chain of Endothelial PAS domain-containing protein 1 (Homo sapiens) (Q99814 whole entry, the tested form may be a part): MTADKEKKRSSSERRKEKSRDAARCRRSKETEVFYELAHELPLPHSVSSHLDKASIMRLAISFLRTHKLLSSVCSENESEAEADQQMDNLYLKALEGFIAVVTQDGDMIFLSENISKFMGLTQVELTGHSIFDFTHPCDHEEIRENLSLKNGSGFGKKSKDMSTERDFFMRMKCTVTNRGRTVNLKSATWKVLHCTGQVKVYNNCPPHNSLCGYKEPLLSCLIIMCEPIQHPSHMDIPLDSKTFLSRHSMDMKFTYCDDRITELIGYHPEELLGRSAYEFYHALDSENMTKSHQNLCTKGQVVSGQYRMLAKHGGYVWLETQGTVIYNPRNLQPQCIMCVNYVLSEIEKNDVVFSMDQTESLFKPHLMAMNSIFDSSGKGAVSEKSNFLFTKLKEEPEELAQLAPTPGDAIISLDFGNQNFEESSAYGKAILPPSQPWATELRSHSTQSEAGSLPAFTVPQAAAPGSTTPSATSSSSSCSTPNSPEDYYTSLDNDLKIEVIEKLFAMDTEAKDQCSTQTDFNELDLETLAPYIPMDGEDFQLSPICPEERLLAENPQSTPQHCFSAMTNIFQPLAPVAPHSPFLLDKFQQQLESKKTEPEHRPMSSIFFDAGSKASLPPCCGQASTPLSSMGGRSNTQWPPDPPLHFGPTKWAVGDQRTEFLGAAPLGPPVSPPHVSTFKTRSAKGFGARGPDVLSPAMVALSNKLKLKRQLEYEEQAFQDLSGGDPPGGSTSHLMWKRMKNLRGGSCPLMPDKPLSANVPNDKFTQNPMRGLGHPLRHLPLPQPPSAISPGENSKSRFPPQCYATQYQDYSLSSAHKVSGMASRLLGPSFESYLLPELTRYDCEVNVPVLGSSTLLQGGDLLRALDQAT
# [26] = Toxicity in ICR mouse assessed as change in lungs to body weight ratio at 50 to 200 mg/kg, po administered every other day for 14 days; assay type: organism-based; details: in vivo, 336 h, dose 50-200 mg/kg, time 14 day
# [27] = Cmax in Sprague-Dawley rat at 10 mg/kg, po measured upto 24 hrs by LC-MS/MS analysis; assay type: ADME, organism-based; set-up: time < 24 hrs, dose 10 mg/kg, route po; details: in vivo
# [28] = AUC(0 to infinity) in mouse at 10 mg/kg, po measured upto 24 hrs by LC-MS/MS analysis; assay type: ADME, organism-based; set-up: dose 10 mg/kg, time < 24 hrs, route po; details: in vivo
# [29] = Toxicity in ICR mouse assessed as heart damage at 50 to 200 mg/kg, po administered every other day for 14 days; assay type: organism-based; details: in vivo, 336 h, dose 50-200 mg/kg, time 14 day
# [30] = AUC(0 to t) in Sprague-Dawley rat at 10 mg/kg, po measured upto 24 hrs by LC-MS/MS analysis; assay type: ADME, organism-based; set-up: time < 24 hrs, dose 10 mg/kg, route po; details: in vivo
# [31] = Toxicity in ICR mouse assessed as animal death at 800 mg/kg, po; assay type: organism-based; details: in vivo
# [32] = AUC(0 to infinity) in Sprague-Dawley rat at 10 mg/kg, po measured upto 24 hrs by LC-MS/MS analysis; assay type: ADME, organism-based; set-up: dose 10 mg/kg, time < 24 hrs, route po; details: in vivo
# Hep 3B2 [33] = assay: Effect on VEGFA gene expression in human Hep3B cells at 5 to 20 uM incubated for 12 hrs by RT-qPCR analysis; assay type: functional, cell-based; details: dose 5-20 µM
# [34] = Apparent volume of distribution in mouse at 10 mg/kg, po measured upto 24 hrs by LC-MS/MS analysis; assay type: ADME, organism-based; details: in vivo
# [35] = Mean residence time (0 to infinity) in Sprague-Dawley rat at 1 mg/kg, iv measured upto 24 hrs by LC-MS/MS analysis; assay type: ADME, organism-based; details: in vivo
# [36] = Apparent volume of distribution in Sprague-Dawley rat at 10 mg/kg, po measured upto 24 hrs by LC-MS/MS analysis; assay type: ADME, organism-based; details: in vivo
# [37] = Mean residence time (0 to infinity) in mouse at 10 mg/kg, po measured upto 24 hrs by LC-MS/MS analysis; assay type: ADME, organism-based; details: in vivo
# [38] = Toxicity in ICR mouse assessed as liver damage at 50 to 200 mg/kg, po administered every other day for 14 days; assay type: organism-based; details: in vivo, 336 h, dose 50-200 mg/kg, time 14 day
# [39] = AUC(0 to t) in Sprague-Dawley rat at 1 mg/kg, iv measured upto 24 hrs by LC-MS/MS analysis; assay type: ADME, organism-based; set-up: dose 1 mg/kg, time < 24 hrs, route iv; details: in vivo
# Hep 3B2 [40] = assay: Cytotoxicity against human Hep3B cells incubated for 48 hrs by CCK-8 assay; assay type: toxicity, cell-based; details: hep 3b2, 48 h
# [41] = Oral bioavailability in Sprague-Dawley rat at 10 mg/kg measured upto 24 hrs by LC-MS/MS analysis; assay type: ADME, organism-based; details: in vivo
# [42] = Tmax in Sprague-Dawley rat at 10 mg/kg, po measured upto 24 hrs by LC-MS/MS analysis; assay type: ADME, organism-based; details: in vivo
# [43] = Half life in mouse at 1 mg/kg, iv measured upto 24 hrs by LC-MS/MS analysis; assay type: ADME, organism-based; details: in vivo
# [44] = AUC(0 to t) in mouse at 1 mg/kg, iv measured upto 24 hrs by LC-MS/MS analysis; assay type: ADME, organism-based; set-up: time < 24 hrs, dose 1 mg/kg, route iv; details: in vivo
# [45] = target: Hypoxia-inducible factor 1-alpha (Homo sapiens) (UniProt Q16665); assay: Induction of HIF-1alpha stabilization in human Hep3B cells at 20 to 50 uM by Western blotting analysis; assay type: cell-based; details: dose 20-50 µM
# Chain of Hypoxia-inducible factor 1-alpha (Homo sapiens) (Q16665 whole entry, looked up): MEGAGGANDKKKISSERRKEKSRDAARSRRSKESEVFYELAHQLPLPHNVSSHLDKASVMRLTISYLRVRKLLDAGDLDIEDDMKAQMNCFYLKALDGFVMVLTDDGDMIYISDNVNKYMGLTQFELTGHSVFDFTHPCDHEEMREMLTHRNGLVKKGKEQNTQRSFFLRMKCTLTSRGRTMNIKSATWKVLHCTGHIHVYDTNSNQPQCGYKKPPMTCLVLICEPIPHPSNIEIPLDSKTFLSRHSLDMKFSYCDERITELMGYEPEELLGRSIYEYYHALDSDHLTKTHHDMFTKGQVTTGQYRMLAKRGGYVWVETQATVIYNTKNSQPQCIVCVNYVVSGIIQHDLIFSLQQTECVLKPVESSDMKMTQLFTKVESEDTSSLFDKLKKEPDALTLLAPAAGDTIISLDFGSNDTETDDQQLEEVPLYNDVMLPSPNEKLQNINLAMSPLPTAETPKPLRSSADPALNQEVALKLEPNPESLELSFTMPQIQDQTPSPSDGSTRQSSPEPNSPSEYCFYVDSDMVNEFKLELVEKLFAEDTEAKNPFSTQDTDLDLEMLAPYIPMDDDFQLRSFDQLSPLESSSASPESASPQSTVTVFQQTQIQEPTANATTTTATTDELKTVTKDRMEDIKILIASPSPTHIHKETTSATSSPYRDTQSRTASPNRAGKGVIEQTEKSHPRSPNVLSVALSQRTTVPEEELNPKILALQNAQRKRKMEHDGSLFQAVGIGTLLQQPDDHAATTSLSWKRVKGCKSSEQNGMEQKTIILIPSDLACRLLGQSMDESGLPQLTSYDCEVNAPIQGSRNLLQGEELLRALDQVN
# [46] = Clearance in Sprague-Dawley rat at 1 mg/kg, iv measured upto 24 hrs by LC-MS/MS analysis; assay type: ADME, organism-based; details: in vivo
# [47] = Toxicity in ICR mouse assessed as effect on food intake at 50 to 200 mg/kg, po administered every other day for 14 days; assay type: organism-based; details: in vivo, 336 h, dose 50-200 mg/kg, time 14 day
# [48] = Toxicity in ICR mouse assessed as kidney damage at 50 to 200 mg/kg, po administered every other day for 14 days; assay type: organism-based; details: in vivo, 336 h, dose 50-200 mg/kg, time 14 day
# [49] = Metabolic stability in rat liver microsomes assessed as clearance at 1 uM preincubated for 5 mins followed by NADPH addition and measured upto 60 mins by LC-MS/MS analysis; assay type: ADME, Microsome; details: time < 65 min, read-out: CLH
# [50] = Apparent volume of distribution in Sprague-Dawley rat at 1 mg/kg, iv measured upto 24 hrs by LC-MS/MS analysis; assay type: ADME, organism-based; details: in vivo, read-out: Vz
# [51] = Toxicity in ICR mouse assessed as change in spleen to body weight ratio at 50 to 200 mg/kg, po administered every other day for 14 days; assay type: organism-based; details: in vivo, 336 h, dose 50-200 mg/kg, time 14 day
# [52] = Mean residence time (0 to infinity) in mouse at 1 mg/kg, iv measured upto 24 hrs by LC-MS/MS analysis; assay type: ADME, organism-based; details: in vivo
# Erythrocyte = assay: Upregulation of reticulocytes in C57BL/6J mouse assessed as increase in RBC at 10 to 50 mg/kg, po administered once daily for 3 days; assay type: functional, organism-based; details: dose 10-50 mg/kg, time 3.0 day
smiles,measurement,setting,value
O=C(O)CNC(=O)c1ncc(C2CCN(C(=O)CNc3ccc(Cl)cc3)CC2)cc1O,Activity,Mus musculus,Active
same,Activity,Hep 3B2 [1],Dose-Dependent Effect
same,bioavailability,[2],35.3%
same,AUC(0-inf),[3],1390 ng·h/mL
same,Activity,[4],Non-Toxic
same,Activity,[5],Non-Toxic
same,IC50,Egl nine homolog 1,22.5 nM
same,CL/F,[6],23.6 mL/min/kg
same,CL/F,[7],37.4 mL/min/kg
same,fold change (FC),[8],11
same,Activity,[9],Non-Toxic
same,Activity,[10],Non-Toxic
same,AUC(0-t) at 24 h,[11],4480 ng·h/mL
same,half-life,[12],70.2 min
same,Activity,[13],Non-Toxic
same,MRT inf,[14],33.6 min
same,AUC(0-inf),[15],2110 ng·h/mL
same,Activity,[16],Non-Toxic
same,half-life,[17],223 min
same,Cmax,[18],3040 ng/mL
same,clearance,[19],12 mL/min/kg
same,Activity,[20],Non-Toxic
same,Activity,[21],Non-Toxic
same,Tmax,[22],30 min
same,Activity,[23],Non-Toxic
same,Vd,[24],0.345 L/kg
same,Activity,[25],Active
same,Activity,[26],Non-Toxic
same,Cmax,[27],26100 ng/mL
same,AUC(0-inf),[28],4490 ng·h/mL
same,Activity,[29],Non-Toxic
same,AUC(0-t) at 24 h,[30],7120 ng·h/mL
same,Activity,[31],Non-Toxic
same,AUC(0-inf),[32],7140 ng·h/mL
same,Activity,Hep 3B2 [33],inactive
same,Vz,[34],4.532 L/kg
same,MRT inf,[35],92.4 min
same,Vz,[36],4.692 L/kg
same,MRT inf,[37],100 min
same,Activity,[38],Non-Toxic
same,AUC(0-t) at 24 h,[39],2060 ng·h/mL
same,Activity,Hep 3B2 [40],Non-Toxic
same,bioavailability,[41],33.9%
same,Tmax,[42],4.8 min
same,half-life,[43],19.8 min
same,AUC(0-t) at 24 h,[44],1380 ng·h/mL
same,Activity,[45],Active
same,clearance,[46],8.05 mL/min/kg
same,Activity,[47],Non-Toxic
same,Activity,[48],Non-Toxic
same,microsomal CLint at 1 µM,[49],3.8 µL/min/mg
same,Vd,[50],2.64 L/kg
same,Activity,[51],Non-Toxic
same,MRT inf,[52],31.8 min
same,Activity,Erythrocyte,Dose-Dependent Effect
O=C(O)CNC(=O)c1ncc(C2CCN(C(=O)c3ccc(OC(F)(F)F)cc3)CC2)cc1O,Activity,Mus musculus,Active
same,Activity,Hep 3B2 [1],Dose-Dependent Effect
same,IC50,Egl nine homolog 1,24.6 nM
same,fold change (FC),[8],7
same,Activity,[25],Active
same,Activity,Hep 3B2 [33],inactive
same,Activity,Hep 3B2 [40],Non-Toxic
same,Activity,[45],Active
same,Activity,Erythrocyte,Dose-Dependent Effect
